Several values for one entry are separate records, joined by “and”; a condition that tells them apart may be missing. Identical values can stand only once.
Assays:
Experiment in all cases: biochemical
Assay type in all cases: biochemical
[1] = target: various kinases (Homo sapiens, UniProt O75116); conditions: kinase ROCK2; ZLYTE
[2] = target: various kinases (Homo sapiens, UniProt P00533, C797S); conditions: EGFR (ErbB1) C797S
[3] = target: various kinases (Homo sapiens, UniProt P00533, L861Q); conditions: EGFR (ErbB1) L861Q
[4] = target: various kinases (Homo sapiens, UniProt P05129); conditions: kinase PRKCG (PKC gamma); ZLYTE
[5] = target: various kinases (Homo sapiens, UniProt P08069); conditions: IGF1R
[6] = target: various kinases (Homo sapiens, UniProt P08581, M1250T); conditions: MET M1250T
[7] = target: various kinases (Homo sapiens, UniProt P15056); conditions: BRAF
[8] = target: various kinases (Homo sapiens, UniProt P17612); conditions: kinase PRKACA (PKA); ZLYTE
[9] = target: various kinases (Homo sapiens, UniProt P21802); conditions: FGFR2
[10] = target: various kinases (Homo sapiens, UniProt P24723); conditions: kinase PRKCH (PKC eta); ZLYTE
Sequence of various kinases (Homo sapiens, UniProt P24723) (P24723 whole entry): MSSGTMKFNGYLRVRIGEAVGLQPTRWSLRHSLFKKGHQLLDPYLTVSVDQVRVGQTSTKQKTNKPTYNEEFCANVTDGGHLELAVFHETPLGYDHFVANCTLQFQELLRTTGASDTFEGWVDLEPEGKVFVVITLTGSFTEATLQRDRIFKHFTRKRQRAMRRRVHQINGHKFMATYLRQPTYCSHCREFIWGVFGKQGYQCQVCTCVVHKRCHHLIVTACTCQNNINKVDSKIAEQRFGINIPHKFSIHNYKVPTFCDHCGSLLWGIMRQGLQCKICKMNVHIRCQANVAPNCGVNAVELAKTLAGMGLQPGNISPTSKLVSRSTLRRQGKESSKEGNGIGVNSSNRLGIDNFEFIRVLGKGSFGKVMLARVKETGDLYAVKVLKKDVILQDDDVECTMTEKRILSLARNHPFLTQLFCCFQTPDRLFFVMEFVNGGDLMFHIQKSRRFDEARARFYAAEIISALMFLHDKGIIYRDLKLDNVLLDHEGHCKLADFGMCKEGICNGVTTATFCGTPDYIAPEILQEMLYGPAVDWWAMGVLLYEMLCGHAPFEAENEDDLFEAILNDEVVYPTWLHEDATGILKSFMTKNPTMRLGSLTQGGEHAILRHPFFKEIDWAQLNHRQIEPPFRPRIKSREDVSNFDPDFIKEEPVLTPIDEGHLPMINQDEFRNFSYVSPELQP

[11] = target: various kinases (Homo sapiens, UniProt P29317); conditions: EPHA2
[12] = target: various kinases (Homo sapiens, UniProt P36507); conditions: MAP2K2 (MEK2)
[13] = target: T1, various kinases (Homo sapiens, UniProt P42681); conditions: kinase TXK; ZLYTE
T1 sequence (P42681 1-527): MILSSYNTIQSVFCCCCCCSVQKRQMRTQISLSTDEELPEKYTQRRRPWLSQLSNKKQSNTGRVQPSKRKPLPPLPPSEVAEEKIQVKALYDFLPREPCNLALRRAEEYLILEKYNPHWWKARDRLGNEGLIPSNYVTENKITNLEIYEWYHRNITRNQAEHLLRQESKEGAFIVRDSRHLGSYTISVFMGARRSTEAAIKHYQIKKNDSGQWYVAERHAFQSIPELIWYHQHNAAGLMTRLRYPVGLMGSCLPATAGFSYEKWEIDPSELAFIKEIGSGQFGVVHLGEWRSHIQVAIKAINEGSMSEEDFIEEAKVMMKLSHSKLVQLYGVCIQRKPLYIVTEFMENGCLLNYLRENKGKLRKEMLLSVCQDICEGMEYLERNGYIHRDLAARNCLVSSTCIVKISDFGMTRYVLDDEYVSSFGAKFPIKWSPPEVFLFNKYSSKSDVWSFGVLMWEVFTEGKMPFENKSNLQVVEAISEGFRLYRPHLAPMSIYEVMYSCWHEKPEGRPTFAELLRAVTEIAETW

[14] = target: various kinases (Homo sapiens, UniProt P49137); conditions: MAPKAPK2
[15] = target: various kinases (Homo sapiens, UniProt P49674, R178C); conditions: CSNK1E (CK1 epsilon) R178C
[16] = target: various kinases (Homo sapiens, UniProt P51955); conditions: NEK2
[17] = target: various kinases (Homo sapiens, UniProt Q05655); conditions: kinase PRKCD (PKC delta); ZLYTE
Sequence of various kinases (Homo sapiens, UniProt Q05655) (Q05655 whole entry): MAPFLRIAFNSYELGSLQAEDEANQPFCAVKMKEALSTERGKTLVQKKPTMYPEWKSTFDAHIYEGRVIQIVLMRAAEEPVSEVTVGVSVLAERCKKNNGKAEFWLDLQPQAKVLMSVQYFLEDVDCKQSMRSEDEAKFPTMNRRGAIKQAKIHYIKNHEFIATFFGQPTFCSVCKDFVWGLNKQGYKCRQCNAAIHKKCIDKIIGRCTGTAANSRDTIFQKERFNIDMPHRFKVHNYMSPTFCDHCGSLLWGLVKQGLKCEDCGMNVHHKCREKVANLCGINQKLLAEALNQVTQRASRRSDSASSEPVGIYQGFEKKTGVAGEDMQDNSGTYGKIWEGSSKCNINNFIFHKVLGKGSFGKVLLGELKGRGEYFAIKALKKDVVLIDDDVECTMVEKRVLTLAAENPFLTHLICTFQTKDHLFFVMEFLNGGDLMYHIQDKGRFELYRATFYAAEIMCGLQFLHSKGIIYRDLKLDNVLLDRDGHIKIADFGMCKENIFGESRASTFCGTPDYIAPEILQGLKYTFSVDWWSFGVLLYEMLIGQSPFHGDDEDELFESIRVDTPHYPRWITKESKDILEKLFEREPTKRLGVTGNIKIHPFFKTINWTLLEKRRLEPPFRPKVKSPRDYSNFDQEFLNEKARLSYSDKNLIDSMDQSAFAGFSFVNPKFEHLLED

[18] = target: various kinases (Homo sapiens, UniProt Q13464); conditions: kinase ROCK1; ZLYTE
Sequence of various kinases (Homo sapiens, UniProt Q13464) (Q13464 whole entry): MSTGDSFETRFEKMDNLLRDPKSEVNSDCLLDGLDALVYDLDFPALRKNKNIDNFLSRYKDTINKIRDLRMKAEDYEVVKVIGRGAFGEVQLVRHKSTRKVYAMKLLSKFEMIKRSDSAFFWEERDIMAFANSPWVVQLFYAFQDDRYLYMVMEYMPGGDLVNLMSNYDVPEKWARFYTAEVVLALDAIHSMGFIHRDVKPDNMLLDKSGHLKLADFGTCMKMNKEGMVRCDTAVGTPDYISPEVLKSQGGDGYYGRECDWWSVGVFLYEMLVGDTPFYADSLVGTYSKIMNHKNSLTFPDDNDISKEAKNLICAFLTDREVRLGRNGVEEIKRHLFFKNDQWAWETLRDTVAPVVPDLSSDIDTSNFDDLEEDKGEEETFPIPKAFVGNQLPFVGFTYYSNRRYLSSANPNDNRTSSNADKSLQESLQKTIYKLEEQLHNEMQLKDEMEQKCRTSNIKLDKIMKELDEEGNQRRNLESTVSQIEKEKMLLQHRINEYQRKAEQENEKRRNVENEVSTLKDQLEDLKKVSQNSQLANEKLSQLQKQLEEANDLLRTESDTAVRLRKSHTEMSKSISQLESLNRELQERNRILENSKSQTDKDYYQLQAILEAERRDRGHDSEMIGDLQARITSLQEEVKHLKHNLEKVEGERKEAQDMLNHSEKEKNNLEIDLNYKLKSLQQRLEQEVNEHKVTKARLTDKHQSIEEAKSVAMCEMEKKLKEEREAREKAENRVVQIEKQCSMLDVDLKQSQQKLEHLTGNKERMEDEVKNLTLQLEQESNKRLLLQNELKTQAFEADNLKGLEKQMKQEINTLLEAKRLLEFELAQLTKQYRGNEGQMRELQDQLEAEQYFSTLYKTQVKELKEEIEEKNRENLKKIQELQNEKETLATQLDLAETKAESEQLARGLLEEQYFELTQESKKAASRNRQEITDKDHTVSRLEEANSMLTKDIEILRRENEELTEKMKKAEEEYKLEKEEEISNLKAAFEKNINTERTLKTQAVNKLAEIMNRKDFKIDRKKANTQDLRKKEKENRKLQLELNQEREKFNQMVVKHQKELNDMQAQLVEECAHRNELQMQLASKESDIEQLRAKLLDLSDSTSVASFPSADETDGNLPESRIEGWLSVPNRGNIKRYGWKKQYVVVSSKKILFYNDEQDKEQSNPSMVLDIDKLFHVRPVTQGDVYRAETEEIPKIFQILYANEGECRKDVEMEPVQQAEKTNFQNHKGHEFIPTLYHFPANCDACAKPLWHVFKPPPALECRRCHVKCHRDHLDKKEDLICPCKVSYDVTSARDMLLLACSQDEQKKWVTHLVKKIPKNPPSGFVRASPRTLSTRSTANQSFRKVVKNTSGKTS

[19] = target: various kinases (Homo sapiens, UniProt Q6DT37); conditions: CDC42 BPG (MRCKG)
[20] = target: various kinases (Homo sapiens, UniProt Q8IY84); conditions: NIM1K
[21] = target: various kinases (Homo sapiens, UniProt Q8N4C8); conditions: MINK1
[22] = target: various kinases (Homo sapiens, UniProt Q8TD19); conditions: NEK9
[23] = target: T2, various kinases (Homo sapiens, UniProt Q96PF2); conditions: kinase STK22B (TSSK2); ZLYTE
T2 sequence (Q96PF2 1-358): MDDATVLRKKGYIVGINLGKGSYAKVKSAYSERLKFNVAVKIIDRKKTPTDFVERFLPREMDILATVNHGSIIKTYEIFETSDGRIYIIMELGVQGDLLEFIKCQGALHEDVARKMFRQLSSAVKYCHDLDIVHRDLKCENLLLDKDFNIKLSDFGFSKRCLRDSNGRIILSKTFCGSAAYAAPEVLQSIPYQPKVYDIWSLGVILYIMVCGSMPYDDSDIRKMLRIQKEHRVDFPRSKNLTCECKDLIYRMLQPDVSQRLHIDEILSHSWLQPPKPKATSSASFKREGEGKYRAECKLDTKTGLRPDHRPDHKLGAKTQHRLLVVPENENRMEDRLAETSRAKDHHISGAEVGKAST

[24] = target: various kinases (Homo sapiens, UniProt Q96RG2); conditions: PASK
[25] = target: various kinases (Homo sapiens, UniProt Q9P0L2); conditions: MARK1 (MARK)
[26] = target: various kinases (Homo sapiens, UniProt Q9Y243); conditions: AKT3 (PKB gamma)
Wherever % Inhibition Average is given: test concentration or dose not given here.
Wherever % Inhibition Duplicate #1 is given: test concentration or dose not given here.
Wherever % Inhibition Duplicate #2 is given: test concentration or dose not given here.

Sequence of various kinases (Homo sapiens, UniProt O75116) (O75116 whole entry): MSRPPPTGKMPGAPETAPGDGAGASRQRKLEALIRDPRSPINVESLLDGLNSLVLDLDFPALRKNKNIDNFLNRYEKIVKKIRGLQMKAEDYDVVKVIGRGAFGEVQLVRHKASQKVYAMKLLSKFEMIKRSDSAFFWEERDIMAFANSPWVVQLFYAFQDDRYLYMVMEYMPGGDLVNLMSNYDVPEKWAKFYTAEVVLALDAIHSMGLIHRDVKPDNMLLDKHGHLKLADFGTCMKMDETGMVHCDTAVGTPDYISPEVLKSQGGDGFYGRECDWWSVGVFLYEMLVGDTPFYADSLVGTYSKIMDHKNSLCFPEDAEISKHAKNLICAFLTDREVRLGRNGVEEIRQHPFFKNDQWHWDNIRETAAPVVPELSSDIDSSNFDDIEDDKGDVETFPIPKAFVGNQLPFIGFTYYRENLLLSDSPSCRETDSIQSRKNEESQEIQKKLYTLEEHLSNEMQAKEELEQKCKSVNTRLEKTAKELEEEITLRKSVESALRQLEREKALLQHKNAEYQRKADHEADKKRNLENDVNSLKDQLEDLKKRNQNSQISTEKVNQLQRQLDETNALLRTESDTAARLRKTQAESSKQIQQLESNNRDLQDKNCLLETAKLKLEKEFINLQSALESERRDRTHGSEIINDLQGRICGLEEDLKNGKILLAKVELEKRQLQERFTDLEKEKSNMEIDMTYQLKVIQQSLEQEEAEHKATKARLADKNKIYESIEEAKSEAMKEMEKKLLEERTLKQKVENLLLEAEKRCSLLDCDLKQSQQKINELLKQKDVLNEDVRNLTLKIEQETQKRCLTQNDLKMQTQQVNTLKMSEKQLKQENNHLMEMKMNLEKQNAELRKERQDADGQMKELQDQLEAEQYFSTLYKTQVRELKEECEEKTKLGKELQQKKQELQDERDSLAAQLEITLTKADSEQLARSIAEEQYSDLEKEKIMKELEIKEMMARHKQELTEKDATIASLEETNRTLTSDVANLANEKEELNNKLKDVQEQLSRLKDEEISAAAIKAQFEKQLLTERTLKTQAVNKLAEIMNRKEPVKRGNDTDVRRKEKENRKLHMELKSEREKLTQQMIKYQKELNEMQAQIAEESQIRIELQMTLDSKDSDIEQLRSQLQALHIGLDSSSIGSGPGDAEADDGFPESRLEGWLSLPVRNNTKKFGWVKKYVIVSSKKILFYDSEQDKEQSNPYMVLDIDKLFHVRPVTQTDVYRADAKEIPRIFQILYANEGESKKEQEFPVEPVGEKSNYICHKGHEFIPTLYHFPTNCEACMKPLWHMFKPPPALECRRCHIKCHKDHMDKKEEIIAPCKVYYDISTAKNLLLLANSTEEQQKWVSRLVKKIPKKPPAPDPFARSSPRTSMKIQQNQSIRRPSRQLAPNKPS

COc1ccc2c(c1)[C@]1(C[C@H]1c1ccc3c(/C=C/c4ccc(CN5C[C@@H](C)O[C@@H](C)C5)cc4)n[nH]c3c1)C(=O)N2 [CFI-400945]
% Inhibition Average [1]: 1% | % Inhibition Duplicate #1 [1]: 1% | % Inhibition Duplicate #2 [1]: 1% | % Inhibition [2]: 11% and 5% | % Inhibition [3]: 3% and 0% | % Inhibition Average [4]: -5% | % Inhibition Duplicate #1 [4]: -13% | % Inhibition Duplicate #2 [4]: 3% | % Inhibition [5]: 8% | % Inhibition [6]: 11% | % Inhibition [7]: -1% and 2% | % Inhibition Average [8]: 3% | % Inhibition Duplicate #1 [8]: 4% | % Inhibition Duplicate #2 [8]: 2% | % Inhibition [9]: 55% and 58% | % Inhibition Average [10]: -3% | % Inhibition Duplicate #1 [10]: -10% | % Inhibition Duplicate #2 [10]: 3% | % Inhibition [11]: 14% and 12% | % Inhibition [12]: 7% | % Inhibition Average [13]: 7% | % Inhibition Duplicate #1 [13]: 6% | % Inhibition Duplicate #2 [13]: 8% | % Inhibition [14]: 15% and 12% | % Inhibition [15]: 1% | % Inhibition [16]: -1% and 1% | % Inhibition Average [17]: -2% | % Inhibition Duplicate #1 [17]: -8% | % Inhibition Duplicate #2 [17]: 4% | % Inhibition Average [18]: 0% | % Inhibition Duplicate #1 [18]: 0% | % Inhibition Duplicate #2 [18]: 0% | % Inhibition [19]: 0% and -1% | % Inhibition [20]: 2% and 3% | % Inhibition [21]: 12% and 18% | % Inhibition [22]: 10% and 4% | % Inhibition Average [23]: 3% | % Inhibition Duplicate #1 [23]: 4% | % Inhibition Duplicate #2 [23]: 2% | % Inhibition [24]: 7% and 2% | % Inhibition [25]: 25% and 24% | % Inhibition [26]: 3% and 4%

Source: PMC5762315, “Inhibition of polo-like kinase 4 (PLK4): a new therapeutic option for rhabdoid tumors and pediatric medulloblastoma” (Oncotarget, 2017)
